For assay [1], the target named is T1, Y152A mutant mouse 5-HT3ASR (Mus musculus, UniProt P23979, Y153A).
T1 sequence (P23979 24-483 isoform P23979-2 Y153A): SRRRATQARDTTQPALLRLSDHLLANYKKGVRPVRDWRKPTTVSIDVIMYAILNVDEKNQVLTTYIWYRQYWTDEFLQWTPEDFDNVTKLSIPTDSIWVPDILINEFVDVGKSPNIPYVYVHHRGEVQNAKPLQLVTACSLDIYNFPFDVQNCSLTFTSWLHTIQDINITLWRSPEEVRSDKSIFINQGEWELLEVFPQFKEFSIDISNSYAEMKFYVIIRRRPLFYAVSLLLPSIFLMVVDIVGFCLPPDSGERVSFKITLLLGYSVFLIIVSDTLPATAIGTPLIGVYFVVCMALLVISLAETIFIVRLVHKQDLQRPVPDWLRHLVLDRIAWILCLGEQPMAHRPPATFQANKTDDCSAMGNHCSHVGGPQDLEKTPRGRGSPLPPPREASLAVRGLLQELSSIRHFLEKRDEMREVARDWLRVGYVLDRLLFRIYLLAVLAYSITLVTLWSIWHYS
Description: Inhibition of [^3H]granisetron binding, Y152A receptor. The conditions noted are these: for relative increase in Ki, mutant vs wildtype: Y152A vs wildtype.

Assay [2] addresses T2, K153A mutant mouse 5-HT3ASR (Mus musculus, UniProt P23979, K154A).
T2 sequence (P23979 24-483 isoform P23979-2 K154A): T1 sequence (P23979 24-483 isoform P23979-2 Y153A) with A130Y, K131A
Description: biochemical.

The target in assay [3] is T3, H145A mutant mouse 5-HT3ASR (Mus musculus, UniProt P23979, H146A).
T3 sequence (P23979 24-483 isoform P23979-2 H146A): T1 sequence (P23979 24-483 isoform P23979-2 Y153A) with H123A, A130Y
Description: biochemical.

The next assay concerns the target T4, wildtype mouse 5-HT3ASR (Mus musculus, UniProt P23979).
T4 sequence (P23979 24-483 isoform P23979-2 limits assumed): T1 sequence (P23979 24-483 isoform P23979-2 Y153A) with A130Y
Nature of the assay: biochemical.

Assay [4] concerns the target T5, Y142A mutant mouse 5-HT3ASR (Mus musculus, UniProt P23979, Y143A).
T5 sequence (P23979 24-483 isoform P23979-2 Y143A): T1 sequence (P23979 24-483 isoform P23979-2 Y153A) with Y120A, A130Y
Description: Inhibition of [^3H]granisetron binding, Y142A receptor. The settings on record: for relative increase in Ki, mutant vs wildtype: Y142A vs wildtype.

The target in assay [5] is T6, Y140A mutant mouse 5-HT3ASR (Mus musculus, UniProt P23979, Y141A).
T6 sequence (P23979 24-483 isoform P23979-2 Y141A): T1 sequence (P23979 24-483 isoform P23979-2 Y153A) with Y118A, A130Y
Description: Inhibition of [^3H]granisetron binding, Y140A receptor. The settings on record: for relative increase in Ki, mutant vs wildtype: Y140A vs wildtype.

Where a chain is given by its changes, count along the chain named. Several values for one entry are separate records, joined by “and”; a condition that tells them apart may be missing. Identical values can stand only once.

For the compound `c1ccc(Cn2c(N3CCNCC3)nc3ccccc32)cc1` [lerisetron], the Ki – broadly, a dissociation constant, usually derived from enzyme kinetics or from competition with a known ligand – in assay [1] is 150 ± 36 nM; in assay [2] it was 3 ± 0.66 nM; in assay [3], 0.42 ± 0.04 nM; on wildtype mouse 5-HT3ASR, 0.8 ± 0.19 nM; in assay [4], 130 ± 28 nM; in assay [5], 2.1 ± 0.33 nM. Moreover, the “relative increase in Ki, mutant vs wildtype” value was 190 ± 43 fold and 190 fold in assay [1]; 160 ± 37 fold and 160 fold in assay [4]; 4.6 fold in assay [5].

As for `COc1cc2c3cc1Oc1cc(ccc1O)C[C@@H]1c4c(cc(OC)c(O)c4Oc4ccc(cc4)C[C@@H]3N(C)CC2)CC[N+]1(C)C` [d-tc, d-tubocurarine], the inhibition constant (Ki) in assay [1] came out at 60 ± 19 nM; in assay [2], 17 ± 3 nM; in assay [3], 19 ± 2.6 nM; at wildtype mouse 5-HT3ASR, 6 ± 2.1 nM; in assay [4] it was 39 ± 19 nM; in assay [5], 300 ± 120 nM. The “relative increase in Ki, mutant vs wildtype” value in assay [1] is 10.0 ± 2.3 fold and 10 fold; in assay [4], 6.5 ± 1.5 fold and 6.5 fold; in assay [5], 50 ± 12 fold and 50 fold.
